One data set deals with insulinase. The data set can be described thus: insulinase inhibitory activity measurement (method of Duckworth et al.). Conditions: for anti-insulinase activity: general statement in the description; for insulinase inhibitory activity: peaks from CM-Sepharose column, Example 1. Type of data set: biochemical. Here is the method:
The desired fraction is believed to have a molecular weight of about 1400, approximately the same as bacitracin A or F. Their anti-insulinase and antibacterial activities can be assayed in conventional manner. For example, the insulinase inhibitory activity was measured according to the method of Duckworth, et al., Proc. Nat. Acad. Sci., 69, 3698-3702 (1972) and the anti-bacterial activity by the method of Patrick, et al., Antibiotics and Chemotherapy, 1, 133-137 (1951).
A 350 ml bed volume cf CM-Sepharose in a packed column (2.8×56 cm) was equilibrated with 0.05M ammonium acetate, pH 4.5. One gram of commercial bacitracin dissolved in 50 ml of buffer was applied to the packed column. The material was eluted with 2 liter of equilibrating buffer followed by 350 ml of 1M ammonium acetate pH 4.5 buffer. Five ml fractions were collected and absorbance measurements at 252, 280 and 290 nm were made. In addition, insulinase inhibitory activity measurements were made on each peak. […] The peaks were collected, lyophilized, weighed and dissolved in water at 5 mg/ml concentration for specific activity measurements. The material collected with the second buffer contained 5-10% of the total weight of the applied material and 90% of the total insulinase inhibitory capacity. The specific activity of this material was 10-12 times that of the starting commercial material.

For data set [1] the following is noted: by the protease insulinase; cited from earlier work.

Here are results for three substances from US5100670A, “Use of a bacitracin fraction as a growth promoting agent” (Protor Co., priority 1989, dated 1992).

In the case of bacitracin A, in the data set with insulinase, the anti-insulinase activity result is given as “substantially no anti-insulinase activity” and the insulinase inhibitory activity result is on record as “negligible”. As to bacitracin F, in the data set on insulinase, the anti-insulinase activity result is given as “substantially no anti-insulinase activity” and the insulinase inhibitory activity result was “negligible”. For insulin, the “t1/2 of destruction of insulin after injection” value in data set [1] was “approximately 40 minutes”.
